Measured values from US20220079934A1, “CRENOLANIB FOR TREATING PAIN” (Arog Pharmaceuticals, Inc., priority 2020, published 2022).

Legend:
wildtype TRKA = molecular target: T1, wildtype TRKA (Homo sapiens, UniProt P04629); test: Reaction Biology HotSpot Kinase assay (direct enzyme phosphorylation), TRKA; type: biochemical; details: 33P-ATP, 120 minutes at room temperature, filter-binding
T1 construct: purchased Reaction Biology
Method: (§1) Direct enzyme phosphorylation assay. The Reaction Biology HotSpot Kinase assay was used to screen the present invention against a panel of TRKA, TRKB, and TRKC kinases. For assays of all kinases, the TRK enzyme was prepared in base reaction buffer (20 mM Hepes (pH 7.5), 10 mM MgCl2, 1 mM EGTA, 0.02% Brij35, 0.02 mg/ml BSA, 0.1 mM Na3VO4, 2 mM DTT, 1% DMSO). The reaction was initiated by the addition of 33P-ATP (10 μCi/μL) into the mixture. The reaction mixture was incubated for 120 minutes at room temperature. Radioactivity was detected by filter-binding method, and kinase activity expressed as the percent remaining kinase activity in test samples compared to vehicle reactions. IC50 values and curve fitting were obtained using Prism (GraphPad Software). The activity of the besylate salt of the present invention was determined using a direct enzymatic Reaction Biology HotSpot Kinase assay. All IC50 values are presented in nanomolar concentration. In the direct enzymatic measurement assay, the IC50 of the besylate salt of the current invention against the various TRK kinases is shown in Table 1.

wildtype TRKC = molecular target: T2, wildtype TRKC (Homo sapiens, UniProt Q16288); test: Reaction Biology HotSpot Kinase assay (direct enzyme phosphorylation), TRKC; type: biochemical; details: 33P-ATP, 120 minutes at room temperature, filter-binding
T2 construct: purchased Reaction Biology
Method: as §1

wildtype TRKB = molecular target: T3, wildtype TRKB (Homo sapiens, UniProt Q16620); test: Reaction Biology HotSpot Kinase assay (direct enzyme phosphorylation), TRKB; type: biochemical; details: 33P-ATP, 120 minutes at room temperature, filter-binding
T3 construct: purchased Reaction Biology
Method: as §1

[1] = osteoarthritis patients, lowered dose with risk minimization strategy; 22 patients; cited from earlier work

T1 sequence (P04629 33-796): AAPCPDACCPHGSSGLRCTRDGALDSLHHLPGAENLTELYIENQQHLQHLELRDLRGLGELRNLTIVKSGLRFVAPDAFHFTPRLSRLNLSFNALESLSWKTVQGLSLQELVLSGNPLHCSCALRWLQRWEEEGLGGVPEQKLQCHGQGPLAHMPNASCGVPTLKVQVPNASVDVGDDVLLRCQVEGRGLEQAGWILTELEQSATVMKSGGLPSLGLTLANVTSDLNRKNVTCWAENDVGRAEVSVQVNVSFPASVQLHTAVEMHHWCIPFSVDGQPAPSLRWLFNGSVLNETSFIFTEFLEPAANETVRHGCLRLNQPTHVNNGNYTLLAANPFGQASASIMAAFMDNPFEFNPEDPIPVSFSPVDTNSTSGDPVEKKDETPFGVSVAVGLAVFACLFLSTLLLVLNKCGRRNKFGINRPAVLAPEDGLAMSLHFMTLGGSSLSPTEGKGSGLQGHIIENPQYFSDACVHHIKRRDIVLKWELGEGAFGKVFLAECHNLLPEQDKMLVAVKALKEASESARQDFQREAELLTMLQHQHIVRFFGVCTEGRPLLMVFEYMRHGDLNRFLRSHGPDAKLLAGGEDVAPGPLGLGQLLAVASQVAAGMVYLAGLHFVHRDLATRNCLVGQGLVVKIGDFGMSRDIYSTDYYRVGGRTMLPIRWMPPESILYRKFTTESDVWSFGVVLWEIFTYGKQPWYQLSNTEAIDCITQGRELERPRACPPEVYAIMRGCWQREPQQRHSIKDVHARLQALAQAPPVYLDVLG
T2 sequence (Q16288 32-839): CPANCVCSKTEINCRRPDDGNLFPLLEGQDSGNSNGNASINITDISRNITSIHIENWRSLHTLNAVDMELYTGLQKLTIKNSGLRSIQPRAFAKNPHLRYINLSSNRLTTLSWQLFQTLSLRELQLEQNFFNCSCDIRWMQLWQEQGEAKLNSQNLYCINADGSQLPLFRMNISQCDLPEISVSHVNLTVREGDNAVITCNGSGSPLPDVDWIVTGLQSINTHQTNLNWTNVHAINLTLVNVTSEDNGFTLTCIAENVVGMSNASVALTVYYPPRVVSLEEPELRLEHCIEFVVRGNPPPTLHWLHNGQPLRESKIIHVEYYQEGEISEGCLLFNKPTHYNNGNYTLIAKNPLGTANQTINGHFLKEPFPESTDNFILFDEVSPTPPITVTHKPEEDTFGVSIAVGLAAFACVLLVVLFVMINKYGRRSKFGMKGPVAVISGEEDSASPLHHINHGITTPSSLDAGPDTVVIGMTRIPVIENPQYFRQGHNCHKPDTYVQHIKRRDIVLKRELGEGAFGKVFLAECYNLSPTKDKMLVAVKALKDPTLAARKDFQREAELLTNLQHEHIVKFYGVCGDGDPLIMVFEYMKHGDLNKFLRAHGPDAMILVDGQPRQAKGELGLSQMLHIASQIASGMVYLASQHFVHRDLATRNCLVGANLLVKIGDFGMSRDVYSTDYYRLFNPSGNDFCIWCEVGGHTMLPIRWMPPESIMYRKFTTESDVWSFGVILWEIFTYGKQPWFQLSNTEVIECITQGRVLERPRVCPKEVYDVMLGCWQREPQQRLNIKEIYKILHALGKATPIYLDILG
T3 sequence (Q16620 32-822): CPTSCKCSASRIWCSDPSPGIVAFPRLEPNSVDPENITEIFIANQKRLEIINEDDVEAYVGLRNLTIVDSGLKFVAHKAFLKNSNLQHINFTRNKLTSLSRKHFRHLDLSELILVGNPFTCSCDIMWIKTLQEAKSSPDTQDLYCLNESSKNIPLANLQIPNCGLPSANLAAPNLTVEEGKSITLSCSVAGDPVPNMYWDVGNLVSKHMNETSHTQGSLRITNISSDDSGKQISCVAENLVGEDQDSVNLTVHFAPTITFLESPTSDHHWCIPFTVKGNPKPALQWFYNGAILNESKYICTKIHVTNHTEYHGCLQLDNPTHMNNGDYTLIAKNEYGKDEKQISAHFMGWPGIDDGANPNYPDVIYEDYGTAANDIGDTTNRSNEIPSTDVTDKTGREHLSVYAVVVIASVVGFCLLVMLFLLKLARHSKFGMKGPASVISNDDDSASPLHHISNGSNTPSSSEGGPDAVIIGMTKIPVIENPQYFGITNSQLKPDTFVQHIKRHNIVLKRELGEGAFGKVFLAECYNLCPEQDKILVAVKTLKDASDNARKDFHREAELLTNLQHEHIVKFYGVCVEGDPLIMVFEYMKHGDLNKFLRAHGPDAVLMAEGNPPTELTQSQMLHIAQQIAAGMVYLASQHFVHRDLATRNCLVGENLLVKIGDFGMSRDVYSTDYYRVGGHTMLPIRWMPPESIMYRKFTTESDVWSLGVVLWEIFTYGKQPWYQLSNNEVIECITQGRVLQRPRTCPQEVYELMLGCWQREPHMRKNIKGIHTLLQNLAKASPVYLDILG

Row | Molecule | IC50 (wildtype TRKA) | IC50 (wildtype TRKC) | IC50 (wildtype TRKB) | patients treated who required knee or joint replacement [1]
1 | CC1(COc2ccc3c(c2)ncn3-c2ccc3cccc(N4CCC(N)CC4)c3n2)COC1 [crenolanib besylate] | 31 nM | 1.68 nM | 77.7 nM | 
2 | tanezumab |  |  |  | 9.4%
